Results on 26 molecules are retold here after ChEMBL document CHEMBL4130365, “An overview of benzo[b]thiophene-based medicinal chemistry” (Eur J Med Chem, 2017).

Converted amounts (≈) assume the structure as drawn.

Assay [1] relates to Mycobacterium tuberculosis. As to the kind of experiment: Antimycobacterial activity against Mycobacterium tuberculosis. The class given is functional.
The test system of assay [2] is Mycobacterium tuberculosis. As to the kind of experiment: Growth inhibition of Mycobacterium tuberculosis relative to control. The class given is functional.
In a further assay the test system is Bacillus spizizenii. Nature of the assay: Antibacterial activity against Bacillus subtilis ATCC 6633 at 1000 ug/ml after 48 hrs by filter paper disc method. The note with it: ATCC 6633, 48 h, read-out: IZ. The class given is functional.
Assay [3] deals with Staphylococcus aureus. Nature of the assay: Antibacterial activity against Staphylococcus aureus ATCC 25923 at 1000 ug/ml after 48 hrs by filter paper disc method. The class given is functional. The note with it: ATCC 25923, 48 h, read-out: IZ.
For assay [4], the system named is Mycobacterium tuberculosis. As to the kind of experiment: Antimycobacterial activity against Mycobacterium tuberculosis H37Rv ATCC 25618 after 5 days. The class given is functional. The note with it: H37Rv ATCC 25618, 120 h.
Assay [5] relates to Staphylococcus aureus. Nature of the assay: Antibacterial activity against Staphylococcus aureus ATCC 25923 at 40 ug/ml after 48 hrs by filter paper disc method. The class given is functional. The note with it: ATCC 25923, 48 h, read-out: IZ.
The next assay deals with Streptococcus pneumoniae. As to the kind of experiment: Antibacterial activity against Streptococcus pneumoniae at 1000 ug/ml after 48 hrs by filter paper disc method. The note with it: read-out: IZ. The class given is functional.
Assay [6] relates to MCF7. As to the kind of experiment: Growth inhibition of human MCF7 cells after 48 hrs by SRB assay. The class given is functional, cell-based. Conditions: MCF7, 48 h. For orientation: Sulforhodamine B stains cellular protein and so reports cell mass.
Assay [7] concerns NCI-H460. Nature of the assay: Growth inhibition of human NCI-H460 cells after 48 hrs by SRB assay. The class given is functional, cell-based. Conditions: NCI-H460, 48 h.
For assay [8], the system named is SF-268. Nature of the assay: Growth inhibition of human SF268 cells after 48 hrs by SRB assay. The note with it: SF-268, 48 h. The class given is functional, cell-based.
Assay [9] deals with NCI-H460. Nature of the assay: Growth inhibition of human NCI-H460 cells. The class given is functional, cell-based.
Assay [10] has as its system SF-268. As to the kind of experiment: Growth inhibition of human SF268 cells. The class given is functional, cell-based.
In assay [11] the test system is MCF7. As to the kind of experiment: Growth inhibition of human MCF7 cells. The class given is functional, cell-based.
A further assay concerns the target Tubulin. As to the kind of experiment: Inhibition of tubulin polymerization (unknown origin). The class given is protein-complex assay, Homo sapiens.
Assay [12] in a line: Antioxidant activity assessed as inhibition of ABTS radical formation relative to control. Conditions: dose or concentration not given here. The class given is functional. Details: concentration or dose not given beside the values.
The nature of assay [13]: Antioxidant activity assessed as inhibition of superoxide anion radical formation after 5 mins in presence of PMS and NADH by nitroblue tetrazolium method relative to control. The class given is functional.
The test system of a further assay is Candida. Nature of the assay: Antifungal activity against Candida pannical at 1000 ug/ml after 48 hrs by filter paper disc method. The note with it: read-out: IZ. The class given is functional.
Another assay relates to Aspergillus niger. As to the kind of experiment: Antifungal activity against Aspergillus niger at 1000 ug/ml after 48 hrs by filter paper disc method. The class given is functional. Conditions: read-out: IZ.

The term MIC denotes the lowest concentration found to suppress growth. Consider `O=C(NN1C(=O)/C(=C/c2ccccc2[N+](=O)[O-])N=C1c1ccccc1)c1sc2ccc(Cl)cc2c1Cl`, for which the minimum inhibitory concentration (MIC) in assay [1] is more than 6.25 µg/mL. Besides, the “growth inhibition (GI)” value in assay [2] is listed as 71%.

Consider `O=C(CSc1nnc(-c2sc3ccccc3c2Cl)[nH]1)c1ccc(F)cc1`, for which the zone of inhibition at 1000 µg/mL turned out to be 15 mm with Bacillus spizizenii and 16 mm with Staphylococcus aureus [3].

As a reminder, the MIC99 is the lowest concentration that inhibits either 99% of growth or 99% of the strains tested, depending on the study. Take `COc1ccc(-c2nnc(SC3=CS(=O)(=O)c4ccccc43)o2)cc1`: the MIC99 in [4] was 7.2 µM (≈ 2.68 µg/mL).

`Cc1cccc(NNC(=O)Nc2sc3ccccc3c2Cl)c1`: the zone of inhibition at 40 µg/mL in the assay with Staphylococcus aureus [5] was in the range of 15 to 16 mm. Besides, the zone of inhibition at 1000 µg/mL with Streptococcus pneumoniae stood at 16 mm.

A word on the IC50: it is the concentration that gives 50% inhibition. For the molecule `CC(=O)/C(=C\c1ccccc1O)C(=O)Nc1sc2c(c1C#N)CCCC2`, the IC50 came out at 20 nM in the assay on MCF7 [6], 80 nM with NCI-H460 [7] and 60 nM in the assay on SF-268 [8].

On to `N#Cc1c(/N=C/NNc2ccccc2)sc2c1CCCC2`, for which the IC50 in the assay on NCI-H460 [9], with SF-268 [10] and in the assay with MCF7 [11] was 30 nM each time.

For `CCOC(=O)c1c(-n2c(N)c(C#N)c(C)cc2=O)sc2c1CCCC2`, the figures for the IC50 with MCF7 [6], in the assay with NCI-H460 [7] and in the assay with SF-268 [8] were 10 nM, 10 nM and 80 nM, respectively.

In the case of `O=C(NN1C(=O)/C(=C/c2cccc(Br)c2)N=C1c1ccccc1)c1sc2ccc(Cl)cc2c1Cl`, the MIC in [1] was more than 6.25 µg/mL. In addition, in assay [2], the “growth inhibition (GI)” value was found to be 67%.

Regarding `COc1ccc(-c2sc3cc(OC)ccc3c2C(=O)c2cc(OC)c(OC)c(OC)c2)cc1`, the IC50 against Tubulin came to 40 µM.

What is called inhibition is the change of the read-out against control, counted positive when it falls. Regarding `CCOC(=O)c1c(NC2=C(OC)C(=O)c3ccccc3C2=O)sc2c1CCCC2`, the inhibition in [12] turned out to be 89.9%.

Regarding `Cc1ccc(-c2nnc(SC3=CS(=O)(=O)c4ccccc43)o2)cc1`, the MIC99 in assay [4] came out at 8.2 µM (≈ 2.92 µg/mL).

`Cc1ccccc1Nc1nnc(NC(=O)c2cc3cc(Oc4ccccc4)ccc3s2)s1` registered an MIC in assay [1] of more than 6.25 µg/mL. In addition, in assay [2], the “growth inhibition (GI)” value came out at 60%.

Turning to `CCOC(=O)c1c(NC(=O)c2c(NC(=O)CC#N)sc3c2CCC3)sc2c1CCCC2`, the inhibition in [13] is 61.4%.

For the molecule `COc1ccc(/C=C/C(=O)c2ccc(NC(=O)c3sc4ccccc4c3Cl)cc2)cc1`, the zone of inhibition at 1000 µg/mL with Bacillus spizizenii amounted to 16 mm.

In [4], `O=S1(=O)C=C(Sc2nnc(-c3ccc(Cl)cc3)o2)c2ccccc21` showed an MIC99 of 3.9 µM (≈ 1.47 µg/mL).

For the molecule `COc1ccc(C2CC(c3ccc(NC(=O)c4sc5ccccc5c4Cl)cc3)=NO2)cc1` (stereo unspecified), in the assay on Candida, the zone of inhibition at 1000 µg/mL was found to be 16 mm.

Take `CCOC(=O)CSC(SCC(=O)OCC)=C(C#N)C(=O)Nc1sc2c(c1C(=O)OCC)CCCC2`: the inhibition in assay [13] stood at 58.9%.

Consider `Cn1nnnc1SC1=CS(=O)(=O)c2ccccc21`, for which, in [4], the MIC99 was found to be 2.6 µM (≈ 0.729 µg/mL).

Regarding `O=S1(=O)C=C(Sc2nc3ccccc3o2)c2ccccc21`, the MIC99 in [4] amounted to 5.7 µM (≈ 1.8 µg/mL).

As for `CCOC(=O)C1=C(NCC2=C(O)C(=O)c3ccccc3C2=O)SC2CCCCC12` (stereo unspecified), in [12], the inhibition was 63.2%.

In the case of `COc1ccc(C2CC(c3ccc(NC(=O)c4sc5ccccc5c4Cl)cc3)=NN2)cc1` (stereo unspecified), in the assay on Staphylococcus aureus [3], the zone of inhibition at 1000 µg/mL is 14 mm.

On to `CCOC(=O)c1c(NC2=CC(=O)C(=O)c3ccccc32)sc2c1CCCC2`, for which the inhibition in [12] was found to be 65.6%.

Take `O=c1c2ccccc2nc(-c2sc3ccccc3c2Cl)n1-c1ccc(F)cc1`: the results for the zone of inhibition at 1000 µg/mL with Candida and in the assay with Aspergillus niger were 14 mm and 17 mm, respectively.

In turn, `O=S1(=O)C=C(Sc2nnc(-c3ccccc3)o2)c2ccccc21` gave an MIC99 in assay [4] of 3.1 µM (≈ 1.06 µg/mL).

For `CCOC(=O)c1c(NC(=O)/C(=N/Nc2ccc(Cl)cc2)C(C)=O)sc2c1CCCC2`, the values for the IC50 in the assay on MCF7 [6], in the assay with NCI-H460 [7] and in the assay on SF-268 [8] were 10 nM, 10 nM and 80 nM, respectively.

`O=c1c2ccccc2nc(-c2sc3ccccc3c2Cl)n1-c1ccc([N+](=O)[O-])cc1`: the zone of inhibition at 1000 µg/mL in the assay with Candida was found to be 17 mm; in the assay with Aspergillus niger it was 10 mm.
